Source: ChEMBL document CHEMBL1137723, “Non-imidazole histamine H3 ligands, part IV: SAR of 1-[2-thiazol-5-yl-(2-aminoethyl)]-4-n-propylpiperazine derivatives” (Eur J Med Chem, 2009)

How the values were obtained:
Histamine H3 receptor = Histamine H3 receptor (Cavia porcellus, UniProt Q9JI35); assay: Antagonist activity at histamine H3 receptor in guinea pig jejunum assessed as electrically evoked contractions; format: functional, tissue-based; details: read-out: pA2 (converted)
Histamine H1 receptor = Histamine H1 receptor (Cavia porcellus, UniProt P31389); assay: Antagonist activity at histamine H1 receptor in guinea pig ileum assessed as histamine-induced contractions; format: functional, tissue-based; details: read-out: pA2 (converted)
Sequence of Histamine H1 receptor (P31389 whole entry): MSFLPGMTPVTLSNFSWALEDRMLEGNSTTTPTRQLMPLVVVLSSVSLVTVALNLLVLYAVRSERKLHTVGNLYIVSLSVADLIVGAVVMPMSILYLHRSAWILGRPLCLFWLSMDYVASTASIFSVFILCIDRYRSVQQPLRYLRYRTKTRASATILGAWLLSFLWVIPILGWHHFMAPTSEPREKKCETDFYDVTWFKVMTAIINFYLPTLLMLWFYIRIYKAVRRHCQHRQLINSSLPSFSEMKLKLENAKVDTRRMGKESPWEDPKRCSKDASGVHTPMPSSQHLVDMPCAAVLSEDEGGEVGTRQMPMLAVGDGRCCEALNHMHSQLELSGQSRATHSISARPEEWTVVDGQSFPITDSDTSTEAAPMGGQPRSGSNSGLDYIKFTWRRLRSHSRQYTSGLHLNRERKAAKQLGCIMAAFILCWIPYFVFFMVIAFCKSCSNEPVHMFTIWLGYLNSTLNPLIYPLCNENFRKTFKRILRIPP

Sequence of Histamine H3 receptor (Q9JI35 whole entry): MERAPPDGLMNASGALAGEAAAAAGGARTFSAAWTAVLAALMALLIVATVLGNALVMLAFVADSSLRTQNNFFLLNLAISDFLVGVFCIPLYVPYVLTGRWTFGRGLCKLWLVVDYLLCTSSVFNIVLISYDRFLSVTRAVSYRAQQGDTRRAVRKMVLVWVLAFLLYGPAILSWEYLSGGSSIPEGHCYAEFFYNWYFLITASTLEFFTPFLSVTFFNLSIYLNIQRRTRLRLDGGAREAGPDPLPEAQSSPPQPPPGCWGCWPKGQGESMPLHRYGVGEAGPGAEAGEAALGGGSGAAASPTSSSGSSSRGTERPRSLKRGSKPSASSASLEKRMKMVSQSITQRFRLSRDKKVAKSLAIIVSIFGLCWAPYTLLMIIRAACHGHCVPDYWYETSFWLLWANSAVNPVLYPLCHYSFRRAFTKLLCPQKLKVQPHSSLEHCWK

C=CCN1CCN(c2nc3ccccc3s2)CC1
Kb (Histamine H3 receptor): 0.0794 µM

CCCN1CCN(c2ncc(CCN)s2)CC1
Kb (Histamine H3 receptor): 0.0646 µM

CCCN1CCN(c2nc3cnccc3[nH]2)CC1
Kb (Histamine H3 receptor): 0.0562 µM

CCCN1CCN(c2ncc(CCN(C)Cc3ccccc3)s2)CC1
Kb (Histamine H3 receptor): 0.0174 µM
Kb (Histamine H1 receptor): > 100 µM

CCCN1CCN(c2ncc(CCN(C)CCCc3ccccc3)s2)CC1
Kb (Histamine H3 receptor): 0.00537 µM
Kb (Histamine H1 receptor): > 100 µM

CCCN1CCN(c2ncc(CCN(C)CCCCCc3ccccc3)s2)CC1
Kb (Histamine H3 receptor): 0.0562 µM

CCCN1CCN(c2ncc(CCNC=O)s2)CC1
Kb (Histamine H3 receptor): 0.117 µM

CCCN1CCN(c2nc3cnccc3o2)CC1
Kb (Histamine H3 receptor): 0.126 µM

CCCN1CCN(c2ncc(CCNC)s2)CC1
Kb (Histamine H3 receptor): 0.0631 µM

CCCN1CCN(c2ncc(CCN(C)C=O)s2)CC1
Kb (Histamine H3 receptor): 0.055 µM

CCCN1CCN(c2ncc(CCN(C)C)s2)CC1
Kb (Histamine H3 receptor): 0.0166 µM
Kb (Histamine H1 receptor): > 100 µM

CCCCC(=O)N(C)CCc1cnc(N2CCN(CCC)CC2)s1
Kb (Histamine H3 receptor): 0.0955 µM

CCCN1CCN(c2nc3ccccc3s2)CC1
Kb (Histamine H3 receptor): 0.0692 µM

CCCCCN(C)CCc1cnc(N2CCN(CCC)CC2)s1
Kb (Histamine H3 receptor): 0.0891 µM

CCCN(C)CCc1cnc(N2CCN(CCC)CC2)s1
Kb (Histamine H3 receptor): 0.0295 µM
Kb (Histamine H1 receptor): > 100 µM

CCCN1CCN(c2ncc(CCN(C)C(=O)CC)s2)CC1
Kb (Histamine H3 receptor): 0.0437 µM

S=C(NC1CCCCC1)N1CCC(c2cnc[nH]2)CC1 [THIOPERAMIDE]
Kb (Histamine H3 receptor): 0.000871 µM
